Experimental data as given in US20170198011A1, “COMPOSITION FOR TREATING SEPSIS OR SEPTIC SHOCK COMPRISING THE PEPTIDE ORIGINATED FROM THE SMAD6” (Medpacto, Inc., priority 2011, published 2017).
Values belong to the molecule of their own block, whether it stands above or below them. Where no end group is shown, it is not given here.

What was measured:
[1] = biological target: T1, Pellino-1N domain (Homo sapiens, UniProt Q96FA3); assay: Co-immunoprecipitation of Smad6 MH2 mutants with HA-tagged Pellino-1N in HEK293 cells; format: binding; details: truncated mutants of Smad6 MH2 domain
T1 construct: expressed in transfected cells; host or cells: HEK293
T1 sequence (Q96FA3 1-140 limits assumed): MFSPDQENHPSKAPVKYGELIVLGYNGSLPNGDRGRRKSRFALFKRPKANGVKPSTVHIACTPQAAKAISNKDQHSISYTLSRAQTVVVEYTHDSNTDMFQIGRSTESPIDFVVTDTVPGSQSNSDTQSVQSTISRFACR
From the text: To examine a minimum region of Smad6 that binds certainly to Pellino-1, which specifically interrupts NF-κB (κB nuclear factor kappa B) signaling, mutants were constructed by consecutively truncating the Smad6 MH2 domain, and analyzed using a co-immunoprecipitation assay.
[…] Plasmids carrying genes for different regions of Smad6 (Myc-Smad6 MH2, Myc-Smad6 346F, Myc-Smad6 371F, Myc-Smad6 385F, Myc-Smad6 464R, Myc-Smad6 441R, Myc-Smad6 410R, Myc-Smad6 385-441, Myc-Smad6 385-427, Myc-Smad6 385-418, Myc-Smad6 385-410, Myc-Smad6 400-441, Myc-Smad6 400-427, Myc-Smad6 400-418, Myc-Smad6 400-410, Myc-Smad6 422-441) were constructed by amplifying a full-length Smad6 cDNA by PCR and subcloning it into the BamHI/XhoI site of the pSC3+MT 6×Myc vector. Myc-Smad6 R429A, Myc-Smad6 P432A, Myc-Smad6 P433G, Myc-Smad6 Y435F, and Myc-Smad6 I437D were created using a QuikChange mutagenesis kit (Stratagene).
A co-immunoprecipitation assay was carried out as follows. […]

[2] = tested on: IκBα; assay: Immunoblot of LPS-induced IκBα degradation in stably transformed CMT-93 cells; format: cell-based; details: CMT-93 cells stably expressing the region
From the text: To confirm the specific inhibitory activity of the Smad6 β-sheet small region against NF-κB signaling, the epithelial cell line CMT-93, which is susceptible to both TGF-β1 and LPS, was transformed to stably express the Smad6 β-sheet region.

[3] = tested on: TGF-β1 signaling (Smad binding element); assay: SBE-Luc reporter luciferase assay in CMT-93 cells; format: cell-based; details: TGF-β1 5 ng/ml 2 hrs
From the text: FIG. 2A is a graph showing results of the luciferase assay conducted with CMT-93 cells after transfection with SBE-Luc reporter plasmid plus an empty vector, a plasmid carrying Myc-Smad6 (400-441), or a plasmid carrying full-length Smad6,
FIG. 3D is a graph showing TGF-β-induced luciferase activity in CMT-93 cells transformed with an SBE-Luc reporter plasmid plus an empty vector or a Myc-Smad6 (422-441) plasmid, and
(§1) To examine whether the small region of Smad6 MH2 domain specifically suppresses LPS-induced NF-κB signaling, a 5×NF-κB-Luc reporter plasmid and an SBE (Smad binding element)-Luc reporter plasmid were separately transfected, together with a plasmid expressing a peptide from amino acid 400 to 441 of Smad6, into a CMT-93 epithelial cell line with the aid of Effectene (Qiagen). Following treatment with LPS (10 ng/ml) or TGF-β1 (5 ng/ml) for 2 hrs, the transfected cells were examined for luciferase activity. […] All experiments were independently repeated three times, while a full-length Smad6 plasmid was used as a control.

[4] = tested on: NF-κB; assay: 5xNF-κB-Luc reporter luciferase assay in CMT-93 cells; format: cell-based; details: LPS 10 ng/ml 2 hrs
From the text: FIG. 2B is a graph showing results of the luciferase assay conducted with CMT-93 cells after transfection with a 5×NF-κB-Luc reporter plasmid plus an empty vector, a plasmid carrying Myc-Smad6 (400-441), or a plasmid carrying full-length Smad6, and
FIG. 3E is a graph showing TGF-β-induced luciferase activity in CMT-93 cells transformed with a 5×NF-κB-Luc reporter plasmid plus an empty vector or a Myc-Smad6 (422-441) plasmid;
as §1

[5] = biological target: T2, Pellino-1 (Homo sapiens, UniProt Q96FA3); assay: Co-immunoprecipitation of Smad6 truncated mutants with HA-tagged full length Pellino-1 in HEK293 cells; format: binding
T2 construct: plus an HA-tagged full length Pellino-1 plasmid; expressed in transfected cells; host or cells: HEK293
T2 sequence (Q96FA3 1-418): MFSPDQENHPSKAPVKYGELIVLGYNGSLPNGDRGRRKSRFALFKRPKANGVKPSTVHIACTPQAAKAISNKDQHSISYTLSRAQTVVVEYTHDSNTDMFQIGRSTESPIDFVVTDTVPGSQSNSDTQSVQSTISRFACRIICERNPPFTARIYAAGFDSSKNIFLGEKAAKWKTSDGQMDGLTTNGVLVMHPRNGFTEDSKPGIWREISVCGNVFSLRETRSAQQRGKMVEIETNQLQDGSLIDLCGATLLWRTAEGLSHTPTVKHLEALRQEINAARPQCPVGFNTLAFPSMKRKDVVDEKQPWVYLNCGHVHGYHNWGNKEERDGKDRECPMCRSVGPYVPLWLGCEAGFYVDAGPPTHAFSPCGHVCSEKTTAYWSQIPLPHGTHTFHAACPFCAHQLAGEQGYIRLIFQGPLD
Procedure: (§2) A co-immunoprecipitation assay was carried out as follows. For use as antibodies in co-immunoprecipitation, mouse anti-HA (F-7), mouse anti-c-Myc (9E10), rabbit anti-IκBα (C-21), mouse anti-IRAK1 (F-4), and mouse anti-TRAF6 (D-10) were purchased from Santa Cruz Biotechnology (USA), the antibodies rabbit anti-Pellino-1 and rabbit anti-IRAK4 from Imgenex, the antibodies rabbit anti-Smad6, rabbit anti-MyD88 (D80F5), rabbit anti-IKKα, rabbit anti-phospho-IKKα/β, rabbit anti-RIP1 (D94C12), rabbit anti-IKKi (anti-IKKE; D61F9), rabbit anti-TBK1 (D1B4), rabbit anti-GRK2 from Cell Signaling, and the antibody anti-β-actin from Sigma. Cells were lysed in a lysis buffer (PBS containing 0.5% Triton X-100, 20 mM HEPES (pH 7.4), 150 mM NaCl, 12.5 mM β-glycerol phosphate, 1.5 mM MgCl2, 10 mM NaF, 2 mM DTT, 1 mM Na3O4V, 2 mM EGTA, 1 mM PMSF and protease inhibitor mixture), and harvested by centrifuging 13,000 rpm for 10 min. For immunoprecipitation, the cell lysate were incubated at 4° C. for 12 hrs with protein-A agarose beads and the above-mentioned antibodies. Afterwards, the beads were washed three times with a lysis buffer, and treated with a 2× sample buffer to separate the co-immunoprecipitates therefrom. The co-immunoprecipitates were boiled, followed by SDS-PAGE. […]

[6] = tested on: IRAK1, TRAF6, MyD88; assay: Co-immunoprecipitation of Smad6 (422-441) with other TLR4 signaling proteins in HEK293 cells; format: binding; details: Flag-IRAK1, Flag-TRAF6, Flag-MyD88
Procedure: as §2

- interaction with the Pellino-1N domain [1]: interact
Molecule: Myc-Smad6 400-441: plasmid-expressed Myc-tagged peptide region from amino acid 400 to 441 of the Smad6 MH2 domain (VWAYNRGEHPIFVNSPTLDAPGGRALVVRKVPPGYSIKVFDF; also: Myc tag, plasmid-expressed; UniProt O43541 400-441, looked up, fragment)
- LPS-induced IκBα degradation detected [2]: not
- TGF-β1-mediated reporter activity [3]: did not suppress
- NF-κB-mediated reporter activity [4]: selectively suppressed

- binding to Pellino-1 [5]: sufficient and minimally required
Molecule: Myc-Smad6 422-441: plasmid-expressed Myc-tagged minimum region, amino acid 422 to 441 of Smad6 (GGRALVVRKVPPGYSIKVFD; also: Myc tag, plasmid-expressed)
- TGF-β1-mediated reporter activity [3]: did not suppressed
- NF-κB-mediated reporter activity [4]: specifically suppressing
- binding to other proteins involved in the TLR4 signaling pathway [6]: not to other proteins involved in the TLR4 signaling pathway

B1: full-length Smad6: full-length Smad6 plasmid used as a control (protein, UniProt O43541 1-496, looked up)
chain: MFRSKRSGLVRRLWRSRVVPDREEGGSGGGGGGDEDGSLGSRAEPAPRAREGGGCGRSEVRPVAPRRPRDAVGQRGAQGAGRRRRAGGPPRPMSEPGAGAGSSLLDVAEPGGPGWLPESDCETVTCCLFSERDAAGAPRDASDPLAGAALEPAGGGRSREARSRLLLLEQELKTVTYSLLKRLKERSLDTLLEAVESRGGVPGGCVLVPRADLRLGGQPAPPQLLLGRLFRWPDLQHAVELKPLCGCHSFAAAADGPTVCCNPYHFSRLCGPESPPPPYSRLSPRDEYKPLDLSDSTLSYTETEATNSLITAPGEFSDASMSPDATKPSHWCSVAYWEHRTRVGRLYAVYDQAVSIFYDLPQGSGFCLGQLNLEQRSESVRRTRSKIGFGILLSKEPDGVWAYNRGEHPIFVNSPTLDAPGGRALVVRKVPPGYSIKVFDFERSGLQHAPEPDAADGPYDPNSVRISFAKGWGPCYSRQFITSCPCWLEILLNNPR
modifications: full-length
notes: full-length Smad6 plasmid used as a control
- TGF-β1-mediated reporter activity [3]: suppressed
- NF-κB-mediated reporter activity [4]: suppressed
